Reference: PMC12332404, “Cytochrome P450BM-3 and P450 11A1 retain Compound I (FeO^3+) chemistry with electrophilic substrates poised for Compound 0 (Fe^3+O2^−) reactions” (The Journal of Biological Chemistry, 2025)
Blank lines part the entries; values can stand above or below the compound they belong to.

Tests used:
[1] = biological target: T1, P450BM-3 (102A1) (Priestia megaterium, UniProt P14779); test: UV-vis spectral binding titration (Type I shift, […] to […] nm)
T1 construct: gene cyp102A1
T1 sequence (P14779 1-1049): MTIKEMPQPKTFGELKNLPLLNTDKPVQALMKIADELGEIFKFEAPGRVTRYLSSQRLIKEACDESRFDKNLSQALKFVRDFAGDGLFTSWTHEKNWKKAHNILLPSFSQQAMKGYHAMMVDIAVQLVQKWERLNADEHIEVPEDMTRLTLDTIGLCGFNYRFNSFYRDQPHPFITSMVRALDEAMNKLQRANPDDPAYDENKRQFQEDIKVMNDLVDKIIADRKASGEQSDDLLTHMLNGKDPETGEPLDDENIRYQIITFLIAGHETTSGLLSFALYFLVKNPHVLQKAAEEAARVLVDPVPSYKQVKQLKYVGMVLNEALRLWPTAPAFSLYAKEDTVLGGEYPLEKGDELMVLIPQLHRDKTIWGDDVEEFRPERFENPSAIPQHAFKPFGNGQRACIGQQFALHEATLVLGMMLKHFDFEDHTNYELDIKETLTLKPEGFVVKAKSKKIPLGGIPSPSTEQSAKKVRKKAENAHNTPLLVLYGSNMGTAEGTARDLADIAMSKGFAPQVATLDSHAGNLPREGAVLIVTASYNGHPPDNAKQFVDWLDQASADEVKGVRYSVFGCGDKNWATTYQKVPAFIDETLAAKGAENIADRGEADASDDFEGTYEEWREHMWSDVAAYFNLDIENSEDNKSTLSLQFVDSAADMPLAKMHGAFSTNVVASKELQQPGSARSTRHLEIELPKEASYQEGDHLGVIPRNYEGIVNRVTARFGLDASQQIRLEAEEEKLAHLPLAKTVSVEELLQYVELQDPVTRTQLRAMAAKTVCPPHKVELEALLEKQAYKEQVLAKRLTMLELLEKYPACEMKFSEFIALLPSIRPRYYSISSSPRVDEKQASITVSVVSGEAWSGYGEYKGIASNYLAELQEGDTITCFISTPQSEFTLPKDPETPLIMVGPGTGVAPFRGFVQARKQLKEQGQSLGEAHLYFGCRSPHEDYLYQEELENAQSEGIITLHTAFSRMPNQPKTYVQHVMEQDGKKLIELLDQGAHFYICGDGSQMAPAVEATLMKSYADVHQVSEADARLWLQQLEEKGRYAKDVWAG

[2] = biological target: T1, P450BM-3 (102A1); test: NADPH oxidation and LC-MS hydroxylation rate ([…] min^-1) with purified enzyme; format: biochemical
[3] = biological target: T2, P450 11A1 (Homo sapiens, UniProt P05108); test: UV-vis spectral binding titration (Type II behavior); LC-MS turnover
T2 construct: gene CYP11A1
T2 sequence (P05108 40-521): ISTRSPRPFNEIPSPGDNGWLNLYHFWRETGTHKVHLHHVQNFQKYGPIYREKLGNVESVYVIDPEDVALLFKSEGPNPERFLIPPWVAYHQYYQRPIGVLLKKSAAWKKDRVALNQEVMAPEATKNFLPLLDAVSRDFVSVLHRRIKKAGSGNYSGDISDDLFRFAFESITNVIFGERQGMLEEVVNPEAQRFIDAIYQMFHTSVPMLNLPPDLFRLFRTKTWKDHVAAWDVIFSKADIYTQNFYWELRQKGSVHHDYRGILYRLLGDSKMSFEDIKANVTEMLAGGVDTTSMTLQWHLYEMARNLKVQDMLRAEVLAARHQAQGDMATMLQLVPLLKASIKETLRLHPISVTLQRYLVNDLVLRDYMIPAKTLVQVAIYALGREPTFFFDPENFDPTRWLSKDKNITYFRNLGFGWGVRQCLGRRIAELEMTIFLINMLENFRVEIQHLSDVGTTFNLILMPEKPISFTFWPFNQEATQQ

[4] = biological target: T1, P450BM-3 (102A1); test: NADPH oxidation and LC-MS hydroxylation rate ([…] min^-1) with purified enzyme; format: biochemical; remark: listed apart in the source
[5] = biological target: T1, P450BM-3 (102A1); test: as above; format: biochemical; remark: listed apart in the source

Kd [1]: ~250 µM
Compound: CC(=O)CCCCCCCCCCC(=O)O [12-oxo C13:0, 12-oxotridecanoic acid]

NADPH oxidation and LC-MS hydroxylation rate (100 min^-1) with purified enzyme [2]: 100 min⁻¹
Compound: CCCCCCCCCCCCCCCC(=O)O [C16:0, palmitic acid]

Compound: CC(C)CCC(=O)[C@@H](C)[C@H]1CC[C@H]2[C@@H]3CC=C4C[C@@H](O)CC[C@]4(C)[C@H]3CC[C@]12C [22-oxocholesterol]
Kd [3]: 43 ± 20 µM

Compound: CCCCCCCCCCCC(=O)O [C12:0, dodecanoic acid]
NADPH oxidation and LC-MS hydroxylation rate (2.4 min^-1) with purified enzyme [4]: 2.4 min⁻¹

Compound: CCCCCCCCCCCCCC(=O)O [C14:0, tetradecanoic acid]
NADPH oxidation and LC-MS hydroxylation rate (73 min^-1) with purified enzyme [5]: 73 min⁻¹
